Experimental data published in patent publication US20110112308A1 (NOVARTIS AG, priority 2006, published 2011).

Assays:
[1] = Solubility, 24-hour equilibration at room temperature; format: physicochemical; conditions: for Solubility: approx. at 25° C.
Experimental: Aqueous Solubility: A carefully weighted amount (20-50 mg) of sample is dissolved in 1 ml of solvent with 24-hour equilibration at room temperature. The solubility was determined either gravimetrically or by UV-VIS spectrometry. The pH of the clear solution was also measured. However, the difficulty of determining salt solubilities in water should be stressed, since upon dissolution dissociation to the free form is possible, which affects both the solubility and the pH. It's not unlikely that attempts to make solutions of a salt at a concentration well below the reported solubility of the salt to be unsuccessful (for a full discussion see: M. Pudipeddi, A. T. M. Serajuddin, D. J. W. Grant, and P. H. Stahl in “Handbook of Pharmaceutical Salts Properties Selection and Use” page 27 and references therein).

[2] = pH of saturated solution or 1% suspension in water; format: physicochemical; conditions: room temperature
Experimental: pH Value: The pH at room temperature of a saturated solution or 1% suspension of the drug substance in water was recorded.

[3] = Intrinsic dissolution rate, rotation disk method; format: physicochemical; conditions: for Intrinsic Dissolution Rate: 37° C., 200 r.p.m.
Method in brief: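 Pellets of drug substance dissolved by rotating disk at 200 r.p.m. into a 500 mL vessel at 37 °C. Dissolved drug monitored continuously by recirculating the medium through a UV cell.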

[4] = Solution stability (HPLC); format: physicochemical
Experimental: (§1) All samples were prepared/diluted to a concentration of 0.2 mg/mL in methanol prior to analysis by HPLC. A freshly prepared sample of each salt was used as the reference standard for external standard calibration analysis.

Solid-state stability = format: physicochemical; conditions: for Bulk stability (XRPD): 1 week
Experimental: as §1

[5] = Stability of mixtures with excipients; format: physicochemical
Experimental: as §1

[6] = pH of saturated solution or 1% suspension in water; format: physicochemical; conditions: In pH = 6.8 buffer
[7] = Equilibration in solvents and buffers: form conversion; conditions: water / aqueous solutions
[8] = 2 mg/mL in methanol, 1 week at 50° C.
[9] = 2 mg/mL in water, 1 week at 50° C.
[10] = 2% in 0.5% HPMC 4000, 1 day at RT
[11] = 2% in 0.5% Klucel HF, 1 day at RT
[12] = 2% in 0.8% Tween 80, 1 day at RT
[13] = 5% solution, 1 day at RT (diluted 1:100 in pH 6.8 buffer)
[14] = Bulk stability, 2 weeks, 50° C.
[15] = Bulk stability, 2 weeks, 50° C./20% water
[16] = Bulk stability, 2 weeks, 50° C./75% r.h.
[17] = Light study, 1200 kLux (300-800 nm)
[18] = Mixture 1: 50% PVP + 50% Crospovidone, 50° C./75% r.h., 2 weeks
[19] = Mixture 2: 50% Starch 1500 + 5% MCC 102, 50° C./75% r.h., 2 weeks
[20] = Mixture 3: 5% PVP + 5% Crospovidone + 10% Starch 1500 + 80% MCC 102, 50° C./75% r.h., 2 weeks
[21] = Mixture 4: 99% Lactose + 1% BHT/BHA, 50° C./75% r.h., 2 weeks
[22] = Mixture 5: 99% Mannitol + 1% BHT/BHA, 50° C./75% r.h., 2 weeks
[23] = Mixture 6: 50% Mannitol + 47% HPCLH21 + 1% BHT/BHA + 2% Magnesium Stearate, 50° C./75% r.h., 2 weeks
[24] = Mixture 7: 50% Cetyl Alcohol + 49% HPCLH21 + 1% Magnesium Stearate, 50° C./75% r.h., 2 weeks

## CS(=O)(=O)O.Cc1[nH]c2ccccc2c1CCNCc1ccc(/C=C/C(=O)NO)cc1 [Mesylate, 1:1 mesylate salt of N-hydroxy-3-[4-[[[2-(2-methyl-1H-indol-3-yl)ethyl]amino]methyl]phenyl]-2E-2-propenamide]
[1]
  aqueous solubility: 12900 µg/mL
  solubility in methanol and ethanol, in words: high
  solubility in other common / remaining organic solvents, in words: appreciable
[1]; 0.1N HCl
  Solubility: 600 µg/mL
[1]; 2-Propanol
  Solubility: 2200 µg/mL
[1]; Acetone
  Solubility: 3000 µg/mL
[1]; Ethanol
  Solubility: 14600 µg/mL
[1]; Ethyl acetate
  Solubility: 6400 µg/mL
[1]; Methanol
  Solubility: >115000 µg/mL
[1]; Propylene glycol
  Solubility: 46500 µg/mL
[1]; Water
  Solubility: 12900 µg/mL
[1]; concentration below the reported solubility, precipitate found to be the free base
  behaviour of clear aqueous solutions on storage: solid precipitation occurred
[1]; estimated from mg/mL assuming solution density 1 g/mL
  approximate solubility in water as %: 1.3%
[1]; pH = 6.8 buffer
  Solubility: 4100 µg/mL
[2]
  pH of saturated solution: 4.34
[3]
  intrinsic dissolution (rate), in words: high
[3]; HCl 0.1N
  Intrinsic Dissolution Rate: 6.51 mg min^−1 cm^−2
[3]; Water, free base pellet disintegrated, not true intrinsic rate
  Intrinsic Dissolution Rate: 10.17 mg min^−1 cm^−2
[4]; 2 mg/mL in 100 mM lactate buffer, pH 3.5
  pH of initial mixture: 3.48
[4]; [8]
  % DP (total degradation products): 0.62 % area
  assay: [101.2]
[4]; 2 mg/mL in water
  pH of initial mixture: 6.55
[4]; [9]
  % DP (total degradation products): 1.16 % area
  assay: [99.30]
[4]; 2 mg/mL, 100 mM lactate buffer pH 3.5, 1 week at 50° C.
  % DP (total degradation products): 1.60 % area
[4]; 2 mg/mL, 100 mM lactate buffer pH 3.5, 1 week at 50° C., external standard
  assay: [99.25]
[4]; 2% in 0.5% CMC, 1 day at RT
  % DP (total degradation products): 0.74 % area
  CL (appearance): A↓↓
  assay: [79.72]
[4]; [10]
  % DP (total degradation products): 0.66 % area
  assay: [97.30]
[4]; [11]
  % DP (total degradation products): 0.66 % area
  assay: [97.63]
[4]; [12]
  % DP (total degradation products): 0.63 % area
  assay: [98.05]
[4]; [13]
  % DP (total degradation products): 0.78 % area
  assay: [99.30]
[4]; both in solution and in the solid state
  stability characteristics, in words: very good stability
[4]; unstressed baseline of the stability study
  Unstressed (% Area): 99.30% Area
Solid-state stability; 80° C.
  Bulk stability (XRPD): No change
Solid-state stability; 80° C./75% r.h.
  Bulk stability (XRPD): No change
Solid-state stability; [14]
  % DP (total degradation products): 0.80 % area
  assay: [99.35]
Solid-state stability; [15]
  % DP (total degradation products): 1.48 % area
  assay: [97.36]
Solid-state stability; [16]
  % DP (total degradation products): 1.20 % area
  assay: [100.0]
Solid-state stability; [17]
  % DP (total degradation products): 1.16 % area
  CL (appearance): B (B = slight discoloration)
  assay: [98.28]
[5]; [18]
  % DP (total degradation products): 0.8 % area
  % DS (drug substance): 99.2 % area
[5]; [19]
  % DP (total degradation products): 0.7 % area
  % DS (drug substance): 99.3 % area
[5]; [20]
  % DP (total degradation products): 0.7 % area
  % DS (drug substance): 99.3 % area
[5]; [21]
  % DP (total degradation products): 0.8 % area
  % DS (drug substance): 99.2 % area
[5]; [22]
  % DP (total degradation products): 0.8 % area
  % DS (drug substance): 99.2 % area
[5]; [23]
  % DP (total degradation products): 0.7 % area
  % DS (drug substance): 99.3 % area
[5]; [24]
  % DP (total degradation products): 0.6 % area
  % DS (drug substance): 99.4 % area
[5]; Standard, freshly prepared
  % DP (total degradation products): 0.5 % area
  % DS (drug substance): 99.5 % area
[5]; after 2 weeks at 50° C./75% r.h.
  stability with all excipient mixtures tested, in words: very good stability
[6]
  pH of saturated solution: 5.38
[7]
  conversion upon equilibration: polymorphic transformation
